Biological target: T1, glucocorticoid receptor (Homo sapiens, UniProt P04150)
T1 construct: endogenous in cells; host or cells: HeLa (ATCC) cell lysate supernatant
T1 sequence (P04150 1-777): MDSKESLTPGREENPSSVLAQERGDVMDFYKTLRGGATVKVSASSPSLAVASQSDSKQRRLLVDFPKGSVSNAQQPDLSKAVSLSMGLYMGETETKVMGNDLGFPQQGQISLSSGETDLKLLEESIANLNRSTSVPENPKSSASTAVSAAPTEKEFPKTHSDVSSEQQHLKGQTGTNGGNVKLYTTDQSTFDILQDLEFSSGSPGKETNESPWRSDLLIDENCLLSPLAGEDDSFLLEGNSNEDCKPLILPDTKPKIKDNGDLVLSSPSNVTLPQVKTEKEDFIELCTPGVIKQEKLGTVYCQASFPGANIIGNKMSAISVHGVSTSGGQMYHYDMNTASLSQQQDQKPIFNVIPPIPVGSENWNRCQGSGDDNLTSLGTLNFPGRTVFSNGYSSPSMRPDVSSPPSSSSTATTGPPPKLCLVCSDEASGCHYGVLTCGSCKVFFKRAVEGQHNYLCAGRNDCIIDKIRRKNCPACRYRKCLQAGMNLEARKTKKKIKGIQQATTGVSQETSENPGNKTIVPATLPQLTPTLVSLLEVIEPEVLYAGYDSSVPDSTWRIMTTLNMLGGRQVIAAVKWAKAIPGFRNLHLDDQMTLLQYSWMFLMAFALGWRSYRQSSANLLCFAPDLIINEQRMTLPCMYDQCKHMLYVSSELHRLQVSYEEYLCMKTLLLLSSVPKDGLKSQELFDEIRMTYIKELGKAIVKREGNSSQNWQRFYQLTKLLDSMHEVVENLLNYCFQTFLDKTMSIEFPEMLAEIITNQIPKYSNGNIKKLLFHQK
Assay: Ligand binding assay (GRBind), 3H-dexamethasone displacement in HeLa cell lysate
Details: 3H-DEX tracer
Method in brief: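 Cytosolic supernatant from HeLa cells in TEGM buffer (pH 7.2, with molybdate) was incubated overnight at 4 °C with 3H-dexamethasone (6 nM trace solution) and serially diluted compound, with 2% ethanol. Bound receptor was captured on hydroxylapatite, filtered and counted by scintillation. IC50s were calculated using dexamethasone as reference.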

| SMILES | Ki [nM] |
| --- | --- |
| CC[C@]12Cc3cnn(-c4ccccc4)c3C=C1CC[C@@]2(O)CC(O)c1ccccn1 (single isomer, unassigned) [Example 82a] | 11.3 |
| CC[C@]12Cc3cnn(-c4ccccc4)c3C=C1CC[C@@]2(O)CC(O)c1ccccn1 (single isomer, unassigned) [Example 82b] | 5.46 |
| CC[C@]12Cc3cnn(-c4ccccc4)c3C=C1CC[C@@]2(O)CCc1ncccc1S(=O)(=O)C(C)C [Example 81, (4aS,5R)-4a-Ethyl-5-{2-[3-(iso-propylsulfonyl)pyridin-2-yl]ethyl}-1-phenyl-1,4,4a,5,6,7-hexahydrocyclopenta[f]indazol-5-ol] | 7.3 |

The next molecules have a lower Ki than those just listed; values first:

| Ki [nM] | SMILES |
| --- | --- |
| 1.8 | NC(=O)C(O)c1ccccc1CC[C@]1(O)CCC2=Cc3c(cnn3-c3ccc(F)cc3)C[C@@]21C1CC1 (single isomer, unassigned) [Example 3a] |
| 1.55 | OC(C[C@]1(O)CCC2=Cc3c(cnn3-c3ccc(F)cc3)C[C@@]21C1CC1)c1ccc(F)cn1 (single isomer, unassigned) [Example 79b] |
| 1.32 | OCc1ccccc1CC[C@]1(O)CCC2=Cc3c(cnn3-c3ccc(F)cc3)C[C@@]21C1CC1 [Example 2, (4aR,5R)-4a-Cyclopropyl-1-(4-fluorophenyl)-5-{2-[2-(hydroxymethyl)phenyl]ethyl}-1,4,4a,5,6,7-hexahydrocyclopenta[f]indazol-5-ol] |
| 1.32 | CC[C@]12Cc3cnn(-c4ccc(F)cc4)c3C=C1CC[C@@]2(O)CCc1ncccc1S(C)(=O)=O [Example 80, (4aS,5R)-4a-Ethyl-1-(4-fluorophenyl)-5-{2-[3-(methylsulfonyl)pyridin-2-yl]ethyl}-1,4,4a,5,6,7-hexahydrocyclopenta[f]indazol-5-ol] |

Reference: patent publication US20120214847A1, “2-[1-PHENYL-5-HYDROXY-4a-SUBSTITUTED-HEXAHYDROCYCLOPENTA[F]INDAZOL-5-YL]ETHYL PHENYL DERIVATIVES AS GLUCOCORTICOID RECEPTOR LIGANDS” (Merck Sharp & Dohme Corp., priority 2009, published 2012)
